21 compounds from patent publication US12286442B2, “Methods and materials for increasing transcription factor eb polypeptide levels” (University of Pittsburgh—Of the Commonwealth System of …, priority 2019, dated 2025) can be followed below.

In data set [1] the test system is BEAS-2B cells. In words: Toxicity: compound concentration needed to induce greater than 50 percent of cell loss. Format: cell-based, human. The settings on record: 18 hours incubation. The method in brief:
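BEAS-2B cells stably expressing TFEB-EGFP treated with serial compound dilutions for 18 h, then PFA-fixed, DAPI-stained and imaged. Toxicity scored as the concentration causing >50% cell loss, binned as ≥25 μM, <25 and >1 μM, or ≤1 μM ("+++").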

Data set [2] concerns TFEB. As to the kind of experiment: High content screen measuring TFEB nuclear accumulation (TFEB nuclear/cytosol ratio) in BEAS-2B cells stably expressing TFEB-EGFP. It is filed as cell-based, human. The settings on record: 18 hours incubation. The method in brief:
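BEAS-2B cells stably expressing TFEB-EGFP (~2300–2500 per well) pre-incubated 8 hours, then exposed to serially diluted compounds (DMEM low glucose, 2% FBS) for 18 hours, PFA-fixed and DAPI-stained. Imaged nuclear (DAPI mask) vs cytosolic (expanded mask) TFEB-GFP; activity = minimal concentration raising nuclear/cytosol ratio by 25%.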

SMILES strings stand for the structures.

Consider `OCCNc1nc(-c2ccncc2)nc2ccccc12` [Compound 168], for which the “toxicity (compound concentration needed to induce greater than 50 percent of cell loss)” value in data set [1] was “+ (cell loss of greater than 50 percent at a concentration that equals or is greater than 25 μM was represented as)”. Further, the “efficacy (minimal compound concentration needed to increase TFEB nuclear/cytosol ratio by 25%)” value in data set [2] is recorded as “+ (“+” equals >25 μM)”.

In the case of `N#CCNc1nc(-c2ccncc2)nc2ccccc12` [Compound 169], in data set [1], the “toxicity (compound concentration needed to induce greater than 50 percent of cell loss)” value is “+ (cell loss of greater than 50 percent at a concentration that equals or is greater than 25 μM was represented as)”. In addition, the “efficacy (minimal compound concentration needed to increase TFEB nuclear/cytosol ratio by 25%)” value in data set [2] was “+ (“+” equals >25 μM)”.

For `c1ccc2c(NC3CCCCC3)nc(-c3ccncc3)nc2c1` [Compound 170], the “toxicity (compound concentration needed to induce greater than 50 percent of cell loss)” value in data set [1] is reported as “+ (cell loss of greater than 50 percent at a concentration that equals or is greater than 25 μM was represented as)”. The “efficacy (minimal compound concentration needed to increase TFEB nuclear/cytosol ratio by 25%)” value in data set [2] is “+ (“+” equals >25 μM)”.

Turning to `c1ccc(CCNc2nc(-c3ccncc3)nc3ccccc23)nc1` [Compound 171], the “toxicity (compound concentration needed to induce greater than 50 percent of cell loss)” value in data set [1] is “+ (cell loss of greater than 50 percent at a concentration that equals or is greater than 25 μM was represented as)”. Besides, the “efficacy (minimal compound concentration needed to increase TFEB nuclear/cytosol ratio by 25%)” value in data set [2] is “+ (“+” equals >25 μM)”.

As to `CS(=O)(=O)CCCNc1nc(-c2ccncc2)nc2ccccc12` [Compound 172], the “toxicity (compound concentration needed to induce greater than 50 percent of cell loss)” value in data set [1] is on record as “+ (cell loss of greater than 50 percent at a concentration that equals or is greater than 25 μM was represented as)”. Besides, the “efficacy (minimal compound concentration needed to increase TFEB nuclear/cytosol ratio by 25%)” value in data set [2] was “+ (“+” equals >25 μM)”.

In the case of `CC(C#N)CN(C)c1nc(-c2ccncc2)nc2ccccc12` (stereo not drawn) [Compound 173], in data set [1], the “toxicity (compound concentration needed to induce greater than 50 percent of cell loss)” value is given as “+ (cell loss of greater than 50 percent at a concentration that equals or is greater than 25 μM was represented as)”. Further, in data set [2], the “efficacy (minimal compound concentration needed to increase TFEB nuclear/cytosol ratio by 25%)” value is given as “+ (“+” equals >25 μM)”.

With `NS(=O)(=O)CCCNc1nc(-c2ccncc2)nc2ccccc12` [Compound 174], in data set [1], the “toxicity (compound concentration needed to induce greater than 50 percent of cell loss)” value was “+ (cell loss of greater than 50 percent at a concentration that equals or is greater than 25 μM was represented as)”. Also, the “efficacy (minimal compound concentration needed to increase TFEB nuclear/cytosol ratio by 25%)” value in data set [2] was “+ (“+” equals >25 μM)”.

`c1ccc2c(NC3CCN(C4CC4)CC3)nc(-c3ccncc3)nc2c1` [Compound 175]: in data set [1], the “toxicity (compound concentration needed to induce greater than 50 percent of cell loss)” value is listed as “+ (cell loss of greater than 50 percent at a concentration that equals or is greater than 25 μM was represented as)”. Moreover, the “efficacy (minimal compound concentration needed to increase TFEB nuclear/cytosol ratio by 25%)” value in data set [2] is listed as “+ (“+” equals >25 μM)”.

For `CCN1CCCC1CNc1nc(-c2ccncc2)nc2ccccc12` (stereo not drawn) [Compound 176], the “toxicity (compound concentration needed to induce greater than 50 percent of cell loss)” value in data set [1] is given as “+ (cell loss of greater than 50 percent at a concentration that equals or is greater than 25 μM was represented as)”. Also, in data set [2], the “efficacy (minimal compound concentration needed to increase TFEB nuclear/cytosol ratio by 25%)” value was “++ (“++” equals between ≤25 μM and >1 μM)”.

Take `OC1CCN(c2nc(-c3ccncc3)nc3ccccc23)CC1` [Compound 177]: in data set [1], the “toxicity (compound concentration needed to induce greater than 50 percent of cell loss)” value is reported as “+ (cell loss of greater than 50 percent at a concentration that equals or is greater than 25 μM was represented as)”. For the same compound, the “efficacy (minimal compound concentration needed to increase TFEB nuclear/cytosol ratio by 25%)” value in data set [2] is “+ (“+” equals >25 μM)”.

As to `c1ccc(Nc2nc(-c3ccncc3)nc3ccccc23)cc1` [Compound 179], the “toxicity (compound concentration needed to induce greater than 50 percent of cell loss)” value in data set [1] is recorded as “+ (cell loss of greater than 50 percent at a concentration that equals or is greater than 25 μM was represented as)”. In data set [2], the “efficacy (minimal compound concentration needed to increase TFEB nuclear/cytosol ratio by 25%)” value is “++ (“++” equals between ≤25 μM and >1 μM)”.

In the case of `Fc1ccccc1Nc1nc(-c2ccncc2)nc2ccccc12` [Compound 180], the “toxicity (compound concentration needed to induce greater than 50 percent of cell loss)” value in data set [1] is on record as “+ (cell loss of greater than 50 percent at a concentration that equals or is greater than 25 μM was represented as)”. Further, the “efficacy (minimal compound concentration needed to increase TFEB nuclear/cytosol ratio by 25%)” value in data set [2] was “+ (“+” equals >25 μM)”.

As for `Fc1ccc(Nc2nc(-c3ccncc3)nc3ccccc23)cc1` [Compound 181], in data set [1], the “toxicity (compound concentration needed to induce greater than 50 percent of cell loss)” value is reported as “+ (cell loss of greater than 50 percent at a concentration that equals or is greater than 25 μM was represented as)”. Moreover, the “efficacy (minimal compound concentration needed to increase TFEB nuclear/cytosol ratio by 25%)” value in data set [2] is recorded as “+++ (“+++” equals ≤1 μM)”.

Regarding `Fc1cc(F)cc(Nc2nc(-c3ccncc3)nc3ccccc23)c1` [Compound 182], the “toxicity (compound concentration needed to induce greater than 50 percent of cell loss)” value in data set [1] is “+ (cell loss of greater than 50 percent at a concentration that equals or is greater than 25 μM was represented as)”. Further, the “efficacy (minimal compound concentration needed to increase TFEB nuclear/cytosol ratio by 25%)” value in data set [2] was “+ (“+” equals >25 μM)”.

Take `Fc1ccc(Nc2nc(-c3ccncc3)nc3ccccc23)cc1F` [Compound 183]: the “toxicity (compound concentration needed to induce greater than 50 percent of cell loss)” value in data set [1] is “+ (cell loss of greater than 50 percent at a concentration that equals or is greater than 25 μM was represented as)”. The “efficacy (minimal compound concentration needed to increase TFEB nuclear/cytosol ratio by 25%)” value in data set [2] was “++ (“++” equals between ≤25 μM and >1 μM)”.

Regarding `Cc1cc(F)cc(Nc2nc(-c3ccncc3)nc3ccccc23)c1` [Compound 184], in data set [1], the “toxicity (compound concentration needed to induce greater than 50 percent of cell loss)” value is listed as “+ (cell loss of greater than 50 percent at a concentration that equals or is greater than 25 μM was represented as)”. Moreover, the “efficacy (minimal compound concentration needed to increase TFEB nuclear/cytosol ratio by 25%)” value in data set [2] is “++ (“++” equals between ≤25 μM and >1 μM)”.

On to `Cc1cccc(Nc2nc(-c3ccncc3)nc3ccccc23)c1` [Compound 185], for which the “toxicity (compound concentration needed to induce greater than 50 percent of cell loss)” value in data set [1] is listed as “+ (cell loss of greater than 50 percent at a concentration that equals or is greater than 25 μM was represented as)”. The “efficacy (minimal compound concentration needed to increase TFEB nuclear/cytosol ratio by 25%)” value in data set [2] was “+++ (“+++” equals ≤1 μM)”.

In the case of `N#Cc1cccc(Nc2nc(-c3ccncc3)nc3ccccc23)c1` [Compound 186], the “toxicity (compound concentration needed to induce greater than 50 percent of cell loss)” value in data set [1] is given as “+ (cell loss of greater than 50 percent at a concentration that equals or is greater than 25 μM was represented as)”. In addition, the “efficacy (minimal compound concentration needed to increase TFEB nuclear/cytosol ratio by 25%)” value in data set [2] is on record as “+++ (“+++” equals ≤1 μM)”.

As to `Clc1cccc(Nc2nc(-c3ccncc3)nc3ccccc23)c1` [Compound 187], the “toxicity (compound concentration needed to induce greater than 50 percent of cell loss)” value in data set [1] is reported as “+ (cell loss of greater than 50 percent at a concentration that equals or is greater than 25 μM was represented as)”. The “efficacy (minimal compound concentration needed to increase TFEB nuclear/cytosol ratio by 25%)” value in data set [2] is “+++ (“+++” equals ≤1 μM)”.

Consider `Fc1cccc(CNc2nc(-c3ccncc3)nc3ccccc23)c1` [Compound 188], for which the “toxicity (compound concentration needed to induce greater than 50 percent of cell loss)” value in data set [1] is “+ (cell loss of greater than 50 percent at a concentration that equals or is greater than 25 μM was represented as)”. In data set [2], the “efficacy (minimal compound concentration needed to increase TFEB nuclear/cytosol ratio by 25%)” value was “+ (“+” equals >25 μM)”.

As to `FC(F)(F)c1cccc(Nc2nc(-c3ccncc3)nc3ccccc23)c1` [Compound 189], the “toxicity (compound concentration needed to induce greater than 50 percent of cell loss)” value in data set [1] was “+ (cell loss of greater than 50 percent at a concentration that equals or is greater than 25 μM was represented as)”. In addition, the “efficacy (minimal compound concentration needed to increase TFEB nuclear/cytosol ratio by 25%)” value in data set [2] was “++ (“++” equals between ≤25 μM and >1 μM)”.
